# From paper PMC11204923, “Marine Cytotoxin Santacruzamate A Derivatives as Potent HDAC1-3 Inhibitors and Their Synergistic Anti-Leukemia Effects with Venetoclax” (Marine Drugs, 2024)
# “And” between values parts separate entries of the source, which are not always exact repeats. Equal values may be shown once.
# Legend:
# HDAC1 = target: T1, HDAC1 (Homo sapiens, UniProt Q13547); assay: In vitro HDAC inhibition fluorescence assay, HDAC1; type: biochemical
# T1 construct: purchased BPS Bioscience
# Protocol: (§1) All of the HDAC enzymes were purchased from BPS Bioscience. In vitro HDAC inhibition assays were conducted as previously described. In brief, 20 μL of recombinant HDAC enzyme solution (HDAC1-9, 11) was mixed with various concentrations of the tested compound (20 μL). […] After incubation at 37 °C for 2 h, the catalysis was stopped by the addition of 10 μL of developer containing 30 mg/mL trypsin and 6 μM trichostatin A (TSA). Then, 30 min later, the fluorescence intensity was measured using a microplate reader at excitation and emission wavelengths of 360 and 460 nm, respectively. The inhibition ratios were calculated from the fluorescence intensity readings of tested wells relative to those of control wells, and the IC50 curves and values were determined by GraphPad Prism 6.0, using the “log(inhibitor) vs. normalized response-variable slope” function.
# HDAC2 = target: T2, HDAC2 (Homo sapiens, UniProt Q92769); assay: In vitro HDAC inhibition fluorescence assay, HDAC2; type: biochemical
# T2 construct: purchased BPS Bioscience
# Protocol: as §1
# HDAC9 = target: T3, HDAC9 (Homo sapiens, UniProt Q9UKV0); assay: In vitro HDAC inhibition fluorescence assay, HDAC9; type: biochemical
# T3 construct: purchased BPS Bioscience
# Protocol: (§2) All of the HDAC enzymes were purchased from BPS Bioscience. In vitro HDAC inhibition assays were conducted as previously described. In brief, 20 μL of recombinant HDAC enzyme solution (HDAC1-9, 11) was mixed with various concentrations of the tested compound (20 μL). The mixture was incubated at 37 °C for 1 h, and then, 10 μL of fluorogenic substrate (Boc-Lys (acetyl)-AMC for HDAC1, 2, 3 and 6; Boc-Lys (trifluoroacetyl)AMC for HDAC4, 5, 7, 8, 9 and 11) was added to achieve a final concentration of 50 μM. After incubation at 37 °C for 2 h, the catalysis was stopped by the addition of 10 μL of developer containing 30 mg/mL trypsin and 6 μM trichostatin A (TSA). Then, 30 min later, the fluorescence intensity was measured using a microplate reader at excitation and emission wavelengths of 360 and 460 nm, respectively. The inhibition ratios were calculated from the fluorescence intensity readings of tested wells relative to those of control wells, and the IC50 curves and values were determined by GraphPad Prism 6.0, using the “log(inhibitor) vs. normalized response-variable slope” function.
# HDAC11 = target: T4, HDAC11 (Homo sapiens, UniProt Q96DB2); assay: In vitro HDAC inhibition fluorescence assay, HDAC11; type: biochemical
# T4 construct: purchased BPS Bioscience
# T4 sequence (Q96DB2 1-347): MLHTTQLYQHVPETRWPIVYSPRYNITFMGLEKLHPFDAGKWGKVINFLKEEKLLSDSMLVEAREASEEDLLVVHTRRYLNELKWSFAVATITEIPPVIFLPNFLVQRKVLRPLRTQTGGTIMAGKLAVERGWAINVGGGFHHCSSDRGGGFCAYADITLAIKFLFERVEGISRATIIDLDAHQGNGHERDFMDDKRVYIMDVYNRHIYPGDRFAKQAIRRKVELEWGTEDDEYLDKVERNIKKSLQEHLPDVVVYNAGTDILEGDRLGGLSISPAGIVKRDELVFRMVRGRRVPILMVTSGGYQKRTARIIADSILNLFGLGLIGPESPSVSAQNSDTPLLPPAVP
# Protocol: as §2
# MV4-11 cells [1] = assay: Cell viability assay (resazurin), MV4-11; type: cell-based; conditions: Homo sapiens, MV4-11, 72 h; read-out: IC50 anti-proliferative activity MV4-11
# Protocol: (§3) The AML cell lines MV4-11, THP-1, KASUMI-1 and HL-60 were purchased from Procell Life Science & Technology Co., Ltd. (Wuhan, China). THP-1 and KASUMI-1 were cultured in RPMI-1640 complete medium containing 10% fetal bovine serum and 1% penicillin and streptomycin. MV4-11 was cultured in IMDM complete medium containing 10% fetal bovine serum and 1% penicillin and streptomycin. HL-60 was cultured in IMDM complete medium containing 20% fetal bovine serum and 1% penicillin and streptomycin. All cell lines were cultured in an incubator with humidity set at 95%, temperature at 37 °C and 5% CO2.
# (§4) MV4-11, THP-1, KASUMI-1 and HL-60 cells were plated in 96-well transparent plates (10,000 to 15,000 cells/100 μL) and after incubation overnight, cells were treated with gradient-diluted inhibitors with several concentrations. After the cells were incubated with inhibitors for 72 h, 1 mg/mL of Resazurin (Sigma-Aldrich, Saint Louis, MO, USA) was added (working concentration was 0.1 mg/mL). After incubation at 37 °C for about 3 h, the fluorescence intensity of […] was measured at 560 nm/590 nm (excitation/emission) with a Spectra Max i3 Microplate Reader, and the cell viability was determined. The IC50 curve was drawn using GraphPad Prism 9.5 software.
# THP-1 cells = assay: Cell viability assay (resazurin), THP-1; type: cell-based; conditions: Homo sapiens, THP-1, 72 h; read-out: IC50 anti-proliferative activity THP-1
# Protocol: as §3, §4
# HL-60 cells = assay: Cell viability assay (resazurin), HL-60; type: cell-based; conditions: Homo sapiens, HL-60, 72 h; read-out: IC50 anti-proliferative activity HL-60
# Protocol: as §3, §4
# Kasumi-1 cells = assay: Cell viability assay (resazurin), Kasumi-1; type: cell-based; conditions: Homo sapiens, Kasumi 1, 72 h; read-out: IC50 anti-proliferative activity Kasumi-1
# Protocol: as §3, §4
# MV4-11 cells [2] = assay: Microdilution checkerboard assay, 25c combined with Venetoclax; type: cell-based; conditions: Homo sapiens, 72 h, read-out: Inhibition Rate (%)
# Protocol: The inhibition effect of 25c combined with Venetoclax on the proliferation of MV4-11 cells was determined by microdilution checkerboard assay. CompuSyn software was used to calculate the combined action index of the two compounds, and the cell inhibition rates of the two compounds acting alone and the combined action were input to calculate the combination index (CI) to evaluate the synergistic effect of the drugs. A CI value less than 1 indicates a synergistic effect, a CI value equal to 1 indicates an additive effect and a CI value greater than 1 indicates an antagonistic effect.
# [3] = In vitro stability in rat plasma; type: in vitro ADME; conditions: 37 °C, within 24 h, degradation beginning after about 8 h
# Protocol: (§5) Equal samples were collected, and 600 μL acetonitrile was added to quench enzyme reactions. The reaction mixture was swirled for 30 s and then centrifuged at 15,000 rpm at 4 °C for 15 min. The supernatant of each sample was analyzed directly by HPLC (1260 Infinity II, Agilent Technologies, Waldbronn, Germany).
# [4] = In vitro stability in artificial intestinal juice; type: in vitro ADME; conditions: 37 °C, within 24 h, degradation beginning after about 8 h
# Protocol: as §5
# [5] = In vitro stability in artificial gastric juice; type: in vitro ADME; conditions: 37 °C, within 24 h
# Protocol: as §5
# T1 sequence (Q13547 whole entry): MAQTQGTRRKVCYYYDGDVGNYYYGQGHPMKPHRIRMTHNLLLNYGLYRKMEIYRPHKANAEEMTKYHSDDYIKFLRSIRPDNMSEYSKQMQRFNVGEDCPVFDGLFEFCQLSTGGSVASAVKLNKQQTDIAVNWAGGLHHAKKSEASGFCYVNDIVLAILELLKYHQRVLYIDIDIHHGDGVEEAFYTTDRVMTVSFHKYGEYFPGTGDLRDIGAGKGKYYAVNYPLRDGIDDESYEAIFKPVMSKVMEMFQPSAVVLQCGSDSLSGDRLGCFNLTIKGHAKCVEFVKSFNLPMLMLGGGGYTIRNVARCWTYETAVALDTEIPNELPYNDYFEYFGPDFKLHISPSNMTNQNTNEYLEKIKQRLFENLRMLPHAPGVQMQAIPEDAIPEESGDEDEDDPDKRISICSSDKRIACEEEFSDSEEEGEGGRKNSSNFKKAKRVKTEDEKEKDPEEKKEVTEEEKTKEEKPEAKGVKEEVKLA
# T2 sequence (Q92769 whole entry): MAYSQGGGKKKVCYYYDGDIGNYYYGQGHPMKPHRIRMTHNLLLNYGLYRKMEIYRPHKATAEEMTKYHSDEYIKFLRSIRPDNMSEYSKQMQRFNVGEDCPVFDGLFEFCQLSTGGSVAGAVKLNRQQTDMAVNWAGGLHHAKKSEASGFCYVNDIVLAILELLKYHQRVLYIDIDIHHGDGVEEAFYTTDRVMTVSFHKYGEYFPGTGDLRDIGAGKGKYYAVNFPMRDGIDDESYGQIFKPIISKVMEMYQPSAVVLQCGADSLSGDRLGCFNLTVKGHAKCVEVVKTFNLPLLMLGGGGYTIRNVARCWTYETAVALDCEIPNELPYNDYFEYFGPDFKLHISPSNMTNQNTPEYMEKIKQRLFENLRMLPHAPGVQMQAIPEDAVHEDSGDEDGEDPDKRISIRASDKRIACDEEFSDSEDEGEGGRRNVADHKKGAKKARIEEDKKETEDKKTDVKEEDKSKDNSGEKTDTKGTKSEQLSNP
# T3 sequence (Q9UKV0 whole entry): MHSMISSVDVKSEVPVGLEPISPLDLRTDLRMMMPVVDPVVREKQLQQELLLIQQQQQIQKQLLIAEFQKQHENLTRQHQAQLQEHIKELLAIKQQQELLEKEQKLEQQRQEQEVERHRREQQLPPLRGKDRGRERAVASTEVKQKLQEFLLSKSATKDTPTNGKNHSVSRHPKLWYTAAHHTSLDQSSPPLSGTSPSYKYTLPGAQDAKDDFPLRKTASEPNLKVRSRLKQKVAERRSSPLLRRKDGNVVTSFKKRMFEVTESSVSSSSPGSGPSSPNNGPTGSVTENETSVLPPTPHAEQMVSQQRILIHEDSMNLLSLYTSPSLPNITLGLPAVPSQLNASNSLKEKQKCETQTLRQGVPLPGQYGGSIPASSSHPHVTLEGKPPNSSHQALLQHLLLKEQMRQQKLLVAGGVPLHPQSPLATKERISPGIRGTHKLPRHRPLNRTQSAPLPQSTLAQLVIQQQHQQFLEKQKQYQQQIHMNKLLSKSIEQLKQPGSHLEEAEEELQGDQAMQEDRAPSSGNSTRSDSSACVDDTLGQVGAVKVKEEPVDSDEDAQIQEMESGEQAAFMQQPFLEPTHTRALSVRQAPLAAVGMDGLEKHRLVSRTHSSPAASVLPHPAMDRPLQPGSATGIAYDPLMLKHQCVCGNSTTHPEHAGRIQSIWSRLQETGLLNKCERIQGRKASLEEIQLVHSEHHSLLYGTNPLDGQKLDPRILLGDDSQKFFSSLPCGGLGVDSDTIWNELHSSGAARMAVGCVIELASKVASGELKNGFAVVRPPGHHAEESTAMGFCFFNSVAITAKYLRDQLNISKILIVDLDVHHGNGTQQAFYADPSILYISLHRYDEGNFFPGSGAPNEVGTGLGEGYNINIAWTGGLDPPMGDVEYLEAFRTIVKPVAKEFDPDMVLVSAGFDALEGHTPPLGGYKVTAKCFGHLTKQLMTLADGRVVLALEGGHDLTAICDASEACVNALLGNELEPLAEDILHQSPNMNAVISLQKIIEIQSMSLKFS
structure (smiles),measurement,setting,value
"CCCNNC(=O)C=Cc1ccc(CNCCc2ccccc2)cc1 [Compound 25c, 3-(4-((Phenethylamino)methyl)phenyl)-N′-propylacrylohydrazide]",IC50,HDAC1,28.1 nM and 28 nM
same,Inhibition Rate of HDAC1 (%),"HDAC1; 10 nM, 0.01 µM",31.1 ± 2.1%
same,inhibition at 0.01 µM,"HDAC1; 10 nM, read-out: Inhibition Rate of HDAC1 (%)",31.1 ± 2.09%
same,inhibition at 0.1 µM,"HDAC1; 100 nM, read-out: Inhibition Rate of HDAC1 (%)",83.6 ± 0.4%
same,IC50,HDAC2,135 ± 13.3 nM
same,IC50,HDAC9,> 10000 nM
same,IC50,HDAC11,> 10000 nM
same,IC50,MV4-11 cells [1],340 ± 117 nM
same,IC50,THP-1 cells,392 ± 60.5 nM
same,IC50,HL-60 cells,480 ± 177 nM
same,IC50,Kasumi-1 cells,338 ± 125 nM
same,inhibition at 0.13 µM,MV4-11 cells [2]; 25c 0.13 μM alone,15.8%
same,inhibition at 0.19 µM,MV4-11 cells [2]; 25c 0.19 μM alone,33.9%
same,inhibition at 0.28 µM,MV4-11 cells [2]; 25c 0.28 μM alone,69.8%
same,degradation in rat plasma,[3],35.60%
same,degradation in artificial intestinal juice,[4],12.52%
same,stability in artificial gastric juice,[5],relatively stable
